Assay results published in US20260284214A1, “EXATECAN DERIVATIVE AND ANTIBODY-DRUG CONJUGATE THEREOF” (priority 2023, published 2026).
Where two headings read alike, the source gives them in different places. Marks after values point to notes of the source that are not given here.

How the values were obtained:
SD rats = experiment: Toxicity comparison after repeated administration to SD rats for 7 days (hematology); type: in vivo; conditions: 0.1 mg/kg iv for 7 consecutive days, end of study
Description: SD rats were taken as test animals to study toxic reactions after intravenous injection of the compounds of the present disclosure to male and female SD rats at a dosage of 0.1 mg/kg for 7 consecutive days.
• Species: male and female SD rats (5 female rats and 5 male rats/group) • Grade: SPF grade • Weight: ♂ 252.0-287.4 g and ♀ 185.7-224.3 g • Age: 8-12 weeks • Source: Zhejiang Vital River Laboratory Animal Technology Co., Ltd.
Male and female SD rats were injected with the test sample solution, and Compound 2 of the example and the Dxd were given in a dosage of 0.1 mg/kg and a dosage volume of 10 mL/kg.
Preparation of test sample solution: the test sample was dissolved with a solvent (5% DMSO+95% Solutol HS-15 in water).
About 0.2 mL of blood was collected from the jugular sinus of the animals into an anticoagulant tube containing an anticoagulant (EDTA-K2) on D3 after administration, and all to-be-dissected animals were fasted for about 12 hours on the eve of D8 before dissection. Dying animals were euthanized, about 2 mL of blood was collected from abdominal aorta into an anticoagulant tube containing an anticoagulant (EDTA-K2) at the time of dissection, and hematological indexes were detected by a Sysmex XN-1000 hemocytometer. Specific detection indexes were as follows.

[1] = test system: MDA-MB-468 (human breast cancer cells); experiment: Cell-proliferation inhibitory activity (CellTiter-Glo, 3 days); type: cell-based; conditions: MDA-MB-468 cells
From the text: (§1) The experiment was intended to detect in-vitro inhibitory activities of the compounds of the present disclosure on NCI-N87 (human gastric cancer cells), KPL-4 (human breast cancer cells) or MDA-MB-468 (human breast cancer cells).
(§2) Human gastric cancer cells NCI-N87 (ATCC, article number: CRL-5822), human breast cancer cells MDA-MB-468 (Cell Bank of the Committee on Type Culture Collection, Chinese Academy of Sciences, article number: TCHu136) and human breast cancer cells KPL-4 (Nanjing Cobioer Biosciences Co., Ltd., article number: CBP60379) were washed with PBS, then the cells were digested with 0.25% Trypsin-EDTA trypsin for about 3-10 minutes, and the digestion was terminated with a complete cell culture medium. The cells were centrifuged at 1000 rpm for 5 minutes, the supernatant was discarded, and the cells were resuspended with a complete cell culture medium, counted by a cell counter, and adjusted to a required density. Each well was added with 90.0 μL of the cell suspension according to 3000 cells per well, and the cell plate was placed into a 5% CO2 cell incubator at 37° C. to incubate the cells overnight.
(§3) In the experiment, a DMSO control group, a positive control group and a test sample group were provided respectively, and the compound Dxd was used as a positive control compound. The cell plate was taken out of the incubator to observe a cell adhesion state, and after cell adhesion, each well was added with 10.00 μL of the sample (starting from a final concentration 10 μM, diluted 5 times, 9 concentrations), shaken gently, and then placed into an incubator to incubate the cells.
(§4) After incubation for 3 days, each well was added with a CellTiter-Glo™ (Promega, article number: G7572/G7571) working solution according to 100.0 μL/well and oscillated by a constant-temperature oscillator to lyse the cells, and 10 minutes later, the plate was read on a microplate reader.
(§5) A calculation formula of a cell-proliferation inhibition rate was: cell-proliferation inhibition rate=(1−RLUtest sample well/RLUDMSO control well)×100%.
(§6) Data analysis: a graph was made by GraphPad Prism 8.0 software with a Log value of a sample concentration as an abscissa and Inhibition % as an ordinate, and data were subjected to Nonlinear regression (curve fit) analysis to obtain an IC50 value of each test sample.

[2] = test system: NCI-N87 (human gastric cancer cells); experiment: as above; type: cell-based
From the text: as §1, §2, §3, §4, §5, §6

[3] = test system: KPL-4 (human breast cancer cells); experiment: as above; type: cell-based; conditions: KPL-4 cells
From the text: as §1, §2, §3, §4, §5, §6

FaDu cells = experiment: Cell inhibitory activity experiment of cytotoxic drug (CellTiter-Glo, 72 hours); type: cell-based, human
Description: (§7) Human pancreatic adenocarcinoma cells BxPC-3 (ATCC, article number: CRL-1687) and human pharyngeal squamous cell carcinoma cells FaDu (ATCC, article number: HTB-43) were washed with PBS, then the cells were digested with 0.25% Trypsin-EDTA trypsin for about 3 minutes, and the digestion was terminated with a complete cell culture medium. The cells were centrifuged at 1000 rpm for 5 minutes, the supernatant was discarded, and the cells were resuspended with a complete cell culture medium, counted by a cell counter, and adjusted to a required density. Each well was added with 50 μL of the cell suspension according to 3000 cells per well, and the cell plate was placed into a 5% CO2 cell incubator at 37° C. to incubate the cells for 12-16 hours.
(§8) The cell plate was taken out of the incubator to observe a cell adhesion state, and after cell adhesion, each well was added with 50 μL of the sample (starting from 10 μM, diluted 5 times, 9 concentrations), shaken gently, and then placed into an incubator to incubate the cells for 72 hours. Each well was added with a Cell Titer-GLO™ (Promega, article number: G7572) working solution according to 100 μL/well and shaken gently to lyse the cells, and the plate was read on a microplate reader.
(§9) Data analysis: a graph was made by GraphPad Prism 7.0 software with a Log value of a sample concentration as an abscissa and Cytotoxicity % as an ordinate, and data were subjected to Nonlinear regression (curve fit) analysis to obtain an IC50 value of each compound.

BxPC-3 cells = experiment: as above; type: cell-based, human
Description: as §7, §8, §9

| Compound | #MONO, change compared with the control group (SD rats; ♀ SD rats) [%**] | #RETIC, change compared with the control group (SD rats; ♀ SD rats) [%**] | HCT, change compared with the control group (SD rats; ♀ SD rats) [%**] | HGB, change compared with the control group (SD rats; ♀ SD rats) [%**] | RBC, change compared with the control group (SD rats; ♀ SD rats) [%**] | #EOS, change compared with the control group (SD rats; ♂ SD rats) | #MONO, change compared with the control group (SD rats; ♂ SD rats) [%**] | #NEUT, change compared with the control group (SD rats; ♂ SD rats) [%**] | #RETIC, change compared with the control group (SD rats; ♂ SD rats) | IC50 ([1]; Homo sapiens, 72 h) [nM] | IC50 ([2]; Homo sapiens, 72 h) [nM] | IC50 ([3]; Homo sapiens, KPL4, 72 h) [nM] | further results |
| --- | --- | --- | --- | --- | --- | --- | --- | --- | --- | --- | --- | --- | --- |
| CC[C@@]1(O)C(=O)OCc2c1cc1n(c2=O)Cc2c-1nc1cc(F)c(C)c3c1c2[C@@H](NC(=O)CO)CC3 [Dxd] | −71.3 | −96.9 | −15.8 | −12.7 | −13.4 | −70.2%* | −77.2 | −66.9 | −95.5%* | 2.71 | 22.6 | 32.3 | #EOS, change compared with the control group (SD rats; ♀ SD rats): −84.44%**; #LUC, change compared with the control group (SD rats; ♀ SD rats): −66.9%**; #NEUT, change compared with the control group (SD rats; ♀ SD rats): −66.1%*; MCHC, change compared with the control group (SD rats; ♀ SD rats): 3.6%**; WBC, change compared with the control group (SD rats; ♀ SD rats): −47.6%*; #BASO, change compared with the control group (SD rats; ♂ SD rats): −82.1%*; HCT, change compared with the control group (SD rats; ♂ SD rats): −15.7%**; HGB, change compared with the control group (SD rats; ♂ SD rats): −12.8%**; MCHC, change compared with the control group (SD rats; ♂ SD rats): 3.2%**; RBC, change compared with the control group (SD rats; ♂ SD rats): −15.3%** |
| C#CCN(CCO)C(=O)N[C@H]1CCc2c(C)c(F)cc3nc4c(c1c23)Cn1c-4cc2c(c1=O)COC(=O)[C@]2(O)CC [Example 2] | −54.1 | −86.4 | −12.0 | −10.7 | −10.9 | −71.4%** | −68.3 | −72.2 | −87.3%** | – | – | – | IC50 [1]: 2.41 nM; IC50 [2]: 11 nM; IC50 [3]: 29.6 nM; IC50 (FaDu cells): 1.49 nM; IC50 (BxPC-3 cells): 0.96 nM |
| C=CCN(CCO)C(=O)N[C@H]1CCc2c(C)c(F)cc3nc4c(c1c23)Cn1c-4cc2c(c1=O)COC(=O)[C@]2(O)CC [Example 3, 1-allyl-3-((1S,9S)-9-ethyl-5-fluoro-9-hydroxy-4-methyl-10,13-dioxo-2,3,9,10,13,15-hexahydro-1H,12H-benzo[de]pyrano[3′,4′:6,7]indolizino[1,2-b]quinolin-1-yl)-1-(2-hydroxyethyl)urea] | – | – | – | – | – | – | – | – | – | 0.99 | 6.39 | 8.82 | IC50 (FaDu cells; Homo sapiens): 1.09 nM; IC50 (BxPC-3 cells; Homo sapiens): 0.76 nM |
